According to ChEMBL document CHEMBL1201862, “PubChem BioAssay data set” (2004):
Activity calls are given as the source filed them.

How the values were obtained:
[1] = target: T1, Voltage-gated N-type calcium channel alpha-1B subunit/Amyloid beta A4 precursor protein-binding family A member 1 (Homo sapiens, UniProt Q00975+Q02410); format: protein assay
[2] = target: Large T antigen (Simian virus 40, UniProt P03070); format: functional, Betapolyomavirus macacae;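 also: Confirmatory-stage PubChem screen for compounds that inhibit SV40 T antigen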
Large T antigen, sequence (P03070 whole entry): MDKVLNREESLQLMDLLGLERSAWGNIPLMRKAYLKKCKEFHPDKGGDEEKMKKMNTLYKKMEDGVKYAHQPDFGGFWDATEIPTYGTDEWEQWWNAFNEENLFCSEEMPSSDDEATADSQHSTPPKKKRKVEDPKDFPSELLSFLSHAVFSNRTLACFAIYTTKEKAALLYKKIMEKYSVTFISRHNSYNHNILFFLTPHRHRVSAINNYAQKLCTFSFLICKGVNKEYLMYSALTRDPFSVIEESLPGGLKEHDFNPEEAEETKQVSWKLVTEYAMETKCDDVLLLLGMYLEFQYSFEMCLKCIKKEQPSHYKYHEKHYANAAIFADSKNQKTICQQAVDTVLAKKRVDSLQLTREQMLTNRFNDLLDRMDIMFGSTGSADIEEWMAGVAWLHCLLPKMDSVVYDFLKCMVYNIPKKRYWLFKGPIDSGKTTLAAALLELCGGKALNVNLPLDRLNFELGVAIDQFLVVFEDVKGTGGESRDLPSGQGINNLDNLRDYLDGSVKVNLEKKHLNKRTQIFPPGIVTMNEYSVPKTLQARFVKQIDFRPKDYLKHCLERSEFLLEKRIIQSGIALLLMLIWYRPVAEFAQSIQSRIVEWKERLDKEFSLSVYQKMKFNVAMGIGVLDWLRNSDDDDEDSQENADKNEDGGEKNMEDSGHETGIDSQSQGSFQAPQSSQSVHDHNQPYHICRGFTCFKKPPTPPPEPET

[3] = target: T1, Voltage-gated N-type calcium channel alpha-1B subunit/Amyloid beta A4 precursor protein-binding family A member 1; format: protein assay; remark: listed apart in the source
[4] = viability of PTEN-deleted HCT116 cells – cell-based, HCT116 PTEN knockout, dose response (AID 1047); format: functional;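 also: HCT116 colon tumor cells with PTEN knocked out; cells exposed to compound for 60 hours before readout; potency for loss of cell viability measured by luminescence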
[5] = viability of HCT116 lacking mutant beta-catenin – cell-based, human colon tumor, dose response (AID 1045); format: functional;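 also: HCT116 colon tumor cells with beta catenin knocked out; cells exposed to compound for 60 hours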
[6] = target: T2, Short transient receptor potential channel 4 (Mus musculus, UniProt Q9QUQ5); test: block of DAMGO-driven TRPC4 calcium entry – cell-based, HEK293 TRPC4/mu-opioid, Fluo-4 calcium, dose response (AID 434942); format: functional;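 also: potency of inhibitors blocking the TRPC4 calcium response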
T2 sequence (Q9QUQ5 whole entry): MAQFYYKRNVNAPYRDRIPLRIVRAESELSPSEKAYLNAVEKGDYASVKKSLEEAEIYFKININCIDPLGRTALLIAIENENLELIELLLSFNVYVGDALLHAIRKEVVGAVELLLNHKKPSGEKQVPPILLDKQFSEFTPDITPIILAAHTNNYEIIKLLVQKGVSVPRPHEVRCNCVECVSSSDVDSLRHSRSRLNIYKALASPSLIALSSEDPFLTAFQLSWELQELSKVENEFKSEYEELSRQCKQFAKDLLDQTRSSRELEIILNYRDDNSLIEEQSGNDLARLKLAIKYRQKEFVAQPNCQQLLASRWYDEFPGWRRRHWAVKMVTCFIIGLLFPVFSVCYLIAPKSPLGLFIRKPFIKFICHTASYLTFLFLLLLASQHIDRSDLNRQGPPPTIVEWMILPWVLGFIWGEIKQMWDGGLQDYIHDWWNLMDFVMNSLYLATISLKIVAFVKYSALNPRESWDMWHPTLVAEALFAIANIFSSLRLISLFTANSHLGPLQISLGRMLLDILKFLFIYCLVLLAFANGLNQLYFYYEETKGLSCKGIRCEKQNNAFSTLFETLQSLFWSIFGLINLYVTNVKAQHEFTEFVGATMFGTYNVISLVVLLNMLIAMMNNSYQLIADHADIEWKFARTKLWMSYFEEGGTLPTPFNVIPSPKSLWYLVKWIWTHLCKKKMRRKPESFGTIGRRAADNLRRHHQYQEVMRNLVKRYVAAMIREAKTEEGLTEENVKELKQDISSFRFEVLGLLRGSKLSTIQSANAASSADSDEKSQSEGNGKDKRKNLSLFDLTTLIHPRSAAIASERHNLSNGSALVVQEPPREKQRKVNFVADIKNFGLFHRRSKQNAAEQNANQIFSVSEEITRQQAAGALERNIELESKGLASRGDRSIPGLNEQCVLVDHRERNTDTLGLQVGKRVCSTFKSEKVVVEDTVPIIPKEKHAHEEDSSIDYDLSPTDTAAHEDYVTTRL

[7] = test system: HEK293; test: inhibition of NOD1-driven NF-kB reporter – cell-based, luminescence, uHTS, primary screen (AID 1578); format: functional; conditions: Homo sapiens
[8] = test system: HEK293; test: cells; format: functional, cell-based; conditions: Homo sapiens
[9] = test system: HEK293; test: cells; format: functional, cell-based; conditions: Homo sapiens; remark: listed apart in the source
[10] = HPDE-C7 pancreatic duct cell viability loss – fluorescence, HTS (AID 430); format: functional, cell-based; conditions: Homo sapiens
[11] = target: Nucleotide-binding oligomerization domain-containing protein 2 (Homo sapiens, UniProt Q9HC29); test: inhibition of NOD2-driven NF-kB reporter – cell-based, luminescence, uHTS, HEK293 (AID 1566); format: functional
Nucleotide-binding oligomerization domain-containing protein 2, sequence (Q9HC29 whole entry, the tested form may be a part): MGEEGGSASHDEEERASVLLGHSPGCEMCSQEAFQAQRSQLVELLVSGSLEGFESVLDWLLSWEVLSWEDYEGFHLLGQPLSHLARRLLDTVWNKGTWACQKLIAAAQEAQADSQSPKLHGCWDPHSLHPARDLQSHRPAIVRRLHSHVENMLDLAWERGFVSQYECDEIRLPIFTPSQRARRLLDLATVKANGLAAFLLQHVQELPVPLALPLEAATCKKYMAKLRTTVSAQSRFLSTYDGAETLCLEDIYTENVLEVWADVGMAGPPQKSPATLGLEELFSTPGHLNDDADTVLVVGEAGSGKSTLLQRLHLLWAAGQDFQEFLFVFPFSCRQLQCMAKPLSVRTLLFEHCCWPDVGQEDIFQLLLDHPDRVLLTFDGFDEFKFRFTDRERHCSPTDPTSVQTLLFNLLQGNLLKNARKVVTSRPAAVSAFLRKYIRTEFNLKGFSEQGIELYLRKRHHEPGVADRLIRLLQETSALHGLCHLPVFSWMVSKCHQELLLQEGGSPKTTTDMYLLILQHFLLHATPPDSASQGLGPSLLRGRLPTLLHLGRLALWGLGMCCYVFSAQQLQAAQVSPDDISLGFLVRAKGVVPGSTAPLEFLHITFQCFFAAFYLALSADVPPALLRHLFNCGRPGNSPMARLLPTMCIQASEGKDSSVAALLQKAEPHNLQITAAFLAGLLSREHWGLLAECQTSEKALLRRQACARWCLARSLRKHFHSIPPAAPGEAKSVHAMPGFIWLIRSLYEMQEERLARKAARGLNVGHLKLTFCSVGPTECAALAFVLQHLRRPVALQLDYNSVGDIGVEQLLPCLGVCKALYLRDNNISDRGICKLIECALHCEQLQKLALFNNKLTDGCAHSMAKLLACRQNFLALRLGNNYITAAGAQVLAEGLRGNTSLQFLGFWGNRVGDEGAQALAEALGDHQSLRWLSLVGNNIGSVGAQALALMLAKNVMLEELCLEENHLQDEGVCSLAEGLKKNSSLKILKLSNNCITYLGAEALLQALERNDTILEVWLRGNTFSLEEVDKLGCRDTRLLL

[12] = test system: HEK293; test: NOD2 signaling inhibitors in MDP-stimulated cells, cell-based, uHTS, luminescence (AID 2001); format: functional; conditions: Homo sapiens
[13] = test system: HEK293; test: cells; format: functional, cell-based; conditions: Homo sapiens; remark: listed apart in the source
[14] = viability loss of HPDE-C7K cells – cell-based, fluorescence, HTS, primary screen (AID 431); format: functional; conditions: Homo sapiens
[15] = target: T3, Heat shock factor protein 1 (Mus musculus, UniProt P38532); test: enhancement of HSF1-driven luciferase signal – cell-based, NIH3T3, luminescence, dose retest, confirmation (AID 435004); format: functional;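 also: stress induced by proteasome inhibitor MG132 added 30 min after compound; luciferase reporter driven by HSF1 response element in NIH3T3 cells; actives raise luminescence as potentiators of the MG132 stress response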
T3 sequence (P38532 whole entry): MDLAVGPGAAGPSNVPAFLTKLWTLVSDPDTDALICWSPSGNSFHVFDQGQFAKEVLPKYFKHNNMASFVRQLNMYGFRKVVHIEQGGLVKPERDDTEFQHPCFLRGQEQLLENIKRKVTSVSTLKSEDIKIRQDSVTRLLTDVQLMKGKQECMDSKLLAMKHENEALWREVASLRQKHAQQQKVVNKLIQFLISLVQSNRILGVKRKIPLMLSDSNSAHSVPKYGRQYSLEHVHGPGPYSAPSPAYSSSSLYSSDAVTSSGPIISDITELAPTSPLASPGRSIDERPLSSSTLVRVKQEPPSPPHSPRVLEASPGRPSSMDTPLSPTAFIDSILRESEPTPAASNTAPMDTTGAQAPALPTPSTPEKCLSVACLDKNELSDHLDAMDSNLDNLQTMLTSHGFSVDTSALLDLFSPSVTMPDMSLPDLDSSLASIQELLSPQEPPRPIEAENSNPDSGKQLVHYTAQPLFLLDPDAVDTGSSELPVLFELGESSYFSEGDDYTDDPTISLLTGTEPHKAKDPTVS

[16] = target: T4, Microphthalmia-associated transcription factor (Homo sapiens, UniProt O75030); test: reducers of TRPM1 reporter luminescence, concentration series – cell-based, SK-MEL-5, cherry-picked, set 3, MITF inhibitor project, dose response (AID 493073); format: functional;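 also: SK-MEL-5 melanoma cells with luciferase driven by the MITF target TRPM1 promoter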
T4 sequence (O75030 whole entry): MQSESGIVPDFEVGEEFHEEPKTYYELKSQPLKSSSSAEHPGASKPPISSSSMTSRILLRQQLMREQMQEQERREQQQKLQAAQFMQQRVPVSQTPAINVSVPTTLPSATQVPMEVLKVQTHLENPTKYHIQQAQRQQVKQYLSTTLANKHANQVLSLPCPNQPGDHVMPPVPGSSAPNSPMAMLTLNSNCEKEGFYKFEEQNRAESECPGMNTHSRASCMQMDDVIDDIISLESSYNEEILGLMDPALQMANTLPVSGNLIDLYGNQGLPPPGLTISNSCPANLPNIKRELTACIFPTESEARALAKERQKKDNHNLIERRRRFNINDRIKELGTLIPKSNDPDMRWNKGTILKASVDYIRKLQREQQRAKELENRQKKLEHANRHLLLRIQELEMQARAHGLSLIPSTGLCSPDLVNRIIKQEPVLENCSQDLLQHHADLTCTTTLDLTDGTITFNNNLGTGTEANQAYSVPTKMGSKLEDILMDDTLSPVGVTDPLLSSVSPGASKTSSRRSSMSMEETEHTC

[17] = target: T5, Replicative DNA helicase DnaB (Mycobacterium tuberculosis, UniProt P9WMR3); test: DnaB intein splicing inhibitors, dose response, biochemical, cell-free fluorescence (AID 449749); format: functional
T5 sequence (P9WMR3 whole entry): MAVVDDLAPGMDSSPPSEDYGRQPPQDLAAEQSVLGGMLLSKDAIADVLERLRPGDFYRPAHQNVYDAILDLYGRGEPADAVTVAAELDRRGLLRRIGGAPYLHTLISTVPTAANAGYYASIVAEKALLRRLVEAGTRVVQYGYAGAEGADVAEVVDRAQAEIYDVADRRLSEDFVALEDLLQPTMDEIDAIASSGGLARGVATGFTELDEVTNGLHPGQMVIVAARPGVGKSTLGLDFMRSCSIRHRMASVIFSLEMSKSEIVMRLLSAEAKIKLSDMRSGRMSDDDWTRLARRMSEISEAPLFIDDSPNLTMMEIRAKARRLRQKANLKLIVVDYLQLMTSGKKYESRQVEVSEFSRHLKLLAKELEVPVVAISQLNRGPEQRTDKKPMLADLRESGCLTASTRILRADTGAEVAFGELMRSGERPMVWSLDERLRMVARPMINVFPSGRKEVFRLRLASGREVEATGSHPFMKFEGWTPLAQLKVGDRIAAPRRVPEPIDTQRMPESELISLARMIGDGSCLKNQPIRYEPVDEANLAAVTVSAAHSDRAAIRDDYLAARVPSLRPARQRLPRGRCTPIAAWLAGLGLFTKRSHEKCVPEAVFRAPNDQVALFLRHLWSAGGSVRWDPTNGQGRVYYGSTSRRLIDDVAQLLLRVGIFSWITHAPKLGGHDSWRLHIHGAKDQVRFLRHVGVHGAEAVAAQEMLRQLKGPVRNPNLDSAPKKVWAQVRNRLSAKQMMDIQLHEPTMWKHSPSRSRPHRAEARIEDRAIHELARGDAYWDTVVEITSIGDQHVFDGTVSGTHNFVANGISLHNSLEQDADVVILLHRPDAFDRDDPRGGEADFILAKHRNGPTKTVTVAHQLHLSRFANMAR

[18] = target: T6, Protein RecA (Mycobacterium tuberculosis, UniProt P9WHJ3); test: Fluorescence Cell-Free Homogeneous Dose Retest to Identify Inhibitors of RecA-Intein Splicing Activity. [Related pubchem assays (depositor defined):AID2097, AID2223, AID489010, AID492950]; format: functional
T6 sequence (P9WHJ3 whole entry): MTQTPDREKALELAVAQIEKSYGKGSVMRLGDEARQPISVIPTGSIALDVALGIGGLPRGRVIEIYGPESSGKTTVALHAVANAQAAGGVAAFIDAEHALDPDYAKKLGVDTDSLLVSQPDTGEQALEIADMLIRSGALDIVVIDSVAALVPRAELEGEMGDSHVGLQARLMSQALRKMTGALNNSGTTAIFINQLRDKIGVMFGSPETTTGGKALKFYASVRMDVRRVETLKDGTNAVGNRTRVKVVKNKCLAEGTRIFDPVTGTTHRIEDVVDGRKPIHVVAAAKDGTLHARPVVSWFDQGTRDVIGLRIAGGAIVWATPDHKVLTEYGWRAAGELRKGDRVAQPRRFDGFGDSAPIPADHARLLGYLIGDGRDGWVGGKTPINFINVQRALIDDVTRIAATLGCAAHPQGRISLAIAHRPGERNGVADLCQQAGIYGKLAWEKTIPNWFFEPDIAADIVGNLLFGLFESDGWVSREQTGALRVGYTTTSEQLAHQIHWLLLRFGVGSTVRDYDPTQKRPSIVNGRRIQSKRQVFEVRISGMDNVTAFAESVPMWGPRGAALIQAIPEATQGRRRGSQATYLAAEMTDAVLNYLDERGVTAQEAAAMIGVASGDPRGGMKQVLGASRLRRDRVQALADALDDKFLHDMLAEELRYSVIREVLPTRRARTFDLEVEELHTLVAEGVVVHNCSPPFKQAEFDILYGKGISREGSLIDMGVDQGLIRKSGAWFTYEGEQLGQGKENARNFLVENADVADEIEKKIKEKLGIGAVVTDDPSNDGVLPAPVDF

[19] = target: Hexokinase (Trypanosoma brucei, UniProt Q38C41); test: Confirmation assay for inhibitors of Trypanosoma brucei hexokinase 1-Analogue-first series. [Related pubchem assays (depositor defined):AID1430, AID1632, AID2516, AID2560, AID2579, AID2600, AID449725, AID492951]; format: functional
[20] = target: Alkaline phosphatase, placental type (Homo sapiens, UniProt P05187); test: human placental alkaline phosphatase inhibition – biochemical, luminescence, confirmation (AID 1512); format: functional
[21] = target: T7, Alkaline phosphatase, tissue-nonspecific isozyme (Homo sapiens, UniProt P05186); test: potency against alkaline phosphatase TNAP – biochemical, luminescent, dose response, SAR follow-up (AID 1056)
T7 sequence (P05186 whole entry): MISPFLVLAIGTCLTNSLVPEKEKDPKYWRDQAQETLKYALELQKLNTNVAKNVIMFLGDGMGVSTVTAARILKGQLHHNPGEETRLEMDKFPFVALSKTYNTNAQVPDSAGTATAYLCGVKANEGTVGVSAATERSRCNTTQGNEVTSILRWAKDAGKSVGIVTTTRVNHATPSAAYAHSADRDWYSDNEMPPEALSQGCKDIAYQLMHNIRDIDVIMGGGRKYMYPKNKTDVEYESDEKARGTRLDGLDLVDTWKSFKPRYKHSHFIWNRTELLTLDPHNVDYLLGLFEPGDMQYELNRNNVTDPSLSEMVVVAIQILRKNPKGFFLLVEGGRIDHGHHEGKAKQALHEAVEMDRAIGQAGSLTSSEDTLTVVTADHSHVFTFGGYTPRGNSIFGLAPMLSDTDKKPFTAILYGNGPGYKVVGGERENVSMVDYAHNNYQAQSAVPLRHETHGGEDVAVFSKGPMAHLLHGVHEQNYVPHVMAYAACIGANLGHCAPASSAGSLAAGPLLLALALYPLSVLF

T1 sequence (Q00975 whole entry): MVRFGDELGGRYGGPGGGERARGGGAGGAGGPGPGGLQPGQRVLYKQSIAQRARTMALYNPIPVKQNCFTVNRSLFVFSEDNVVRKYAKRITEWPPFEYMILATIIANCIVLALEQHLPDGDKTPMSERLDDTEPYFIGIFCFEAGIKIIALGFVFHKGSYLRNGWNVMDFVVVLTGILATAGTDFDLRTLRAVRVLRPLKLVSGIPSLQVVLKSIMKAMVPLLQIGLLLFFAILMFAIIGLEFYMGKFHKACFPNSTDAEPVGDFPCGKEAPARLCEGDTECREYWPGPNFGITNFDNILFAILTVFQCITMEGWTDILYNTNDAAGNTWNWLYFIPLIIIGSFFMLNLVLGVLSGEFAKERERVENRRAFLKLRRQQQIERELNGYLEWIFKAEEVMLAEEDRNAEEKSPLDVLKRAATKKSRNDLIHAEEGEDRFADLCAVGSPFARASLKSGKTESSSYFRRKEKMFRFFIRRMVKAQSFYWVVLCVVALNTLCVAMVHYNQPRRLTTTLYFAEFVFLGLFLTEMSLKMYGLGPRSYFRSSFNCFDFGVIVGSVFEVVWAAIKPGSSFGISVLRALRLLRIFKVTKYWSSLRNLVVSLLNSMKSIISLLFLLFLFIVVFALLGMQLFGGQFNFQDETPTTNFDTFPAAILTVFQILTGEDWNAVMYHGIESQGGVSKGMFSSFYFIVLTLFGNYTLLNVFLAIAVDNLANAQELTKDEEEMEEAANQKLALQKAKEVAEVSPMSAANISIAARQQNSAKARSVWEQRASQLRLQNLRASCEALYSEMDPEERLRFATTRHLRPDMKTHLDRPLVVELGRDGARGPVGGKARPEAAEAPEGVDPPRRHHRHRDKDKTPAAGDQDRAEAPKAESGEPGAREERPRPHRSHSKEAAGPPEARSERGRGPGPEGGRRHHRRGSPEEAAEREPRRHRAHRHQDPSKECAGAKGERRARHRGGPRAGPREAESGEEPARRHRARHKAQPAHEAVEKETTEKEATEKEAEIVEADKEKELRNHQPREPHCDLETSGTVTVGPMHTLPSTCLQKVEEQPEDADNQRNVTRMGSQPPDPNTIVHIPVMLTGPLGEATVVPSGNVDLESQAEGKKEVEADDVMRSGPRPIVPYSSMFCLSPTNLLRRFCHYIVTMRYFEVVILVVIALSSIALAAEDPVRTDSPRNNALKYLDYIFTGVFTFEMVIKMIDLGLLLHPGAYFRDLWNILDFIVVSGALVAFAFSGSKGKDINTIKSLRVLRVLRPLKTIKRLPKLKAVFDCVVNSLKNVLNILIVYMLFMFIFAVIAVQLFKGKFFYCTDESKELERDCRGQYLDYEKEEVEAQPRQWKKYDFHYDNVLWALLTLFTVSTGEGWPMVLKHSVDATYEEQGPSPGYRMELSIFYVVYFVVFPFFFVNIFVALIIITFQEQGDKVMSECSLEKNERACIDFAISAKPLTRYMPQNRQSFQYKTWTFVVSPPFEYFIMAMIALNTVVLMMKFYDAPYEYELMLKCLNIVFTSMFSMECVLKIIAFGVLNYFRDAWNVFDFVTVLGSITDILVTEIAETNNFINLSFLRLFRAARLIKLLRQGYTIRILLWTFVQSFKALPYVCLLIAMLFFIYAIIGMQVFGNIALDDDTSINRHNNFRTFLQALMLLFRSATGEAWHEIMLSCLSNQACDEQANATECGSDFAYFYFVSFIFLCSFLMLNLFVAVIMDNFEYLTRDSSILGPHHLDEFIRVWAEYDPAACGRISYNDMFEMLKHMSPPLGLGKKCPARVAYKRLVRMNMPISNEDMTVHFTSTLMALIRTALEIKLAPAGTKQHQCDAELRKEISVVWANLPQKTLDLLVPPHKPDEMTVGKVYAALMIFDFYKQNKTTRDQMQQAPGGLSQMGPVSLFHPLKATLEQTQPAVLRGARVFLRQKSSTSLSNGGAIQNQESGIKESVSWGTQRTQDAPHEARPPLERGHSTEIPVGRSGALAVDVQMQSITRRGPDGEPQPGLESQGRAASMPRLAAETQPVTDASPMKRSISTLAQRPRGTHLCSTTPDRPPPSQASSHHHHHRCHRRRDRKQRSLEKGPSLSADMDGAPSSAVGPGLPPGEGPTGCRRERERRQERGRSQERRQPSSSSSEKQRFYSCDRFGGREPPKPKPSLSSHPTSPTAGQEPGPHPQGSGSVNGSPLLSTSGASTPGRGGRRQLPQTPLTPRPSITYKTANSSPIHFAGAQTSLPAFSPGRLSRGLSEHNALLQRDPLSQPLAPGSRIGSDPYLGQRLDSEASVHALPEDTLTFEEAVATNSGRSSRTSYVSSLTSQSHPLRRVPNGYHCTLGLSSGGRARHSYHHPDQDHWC
T1 sequence (Q02410 whole entry): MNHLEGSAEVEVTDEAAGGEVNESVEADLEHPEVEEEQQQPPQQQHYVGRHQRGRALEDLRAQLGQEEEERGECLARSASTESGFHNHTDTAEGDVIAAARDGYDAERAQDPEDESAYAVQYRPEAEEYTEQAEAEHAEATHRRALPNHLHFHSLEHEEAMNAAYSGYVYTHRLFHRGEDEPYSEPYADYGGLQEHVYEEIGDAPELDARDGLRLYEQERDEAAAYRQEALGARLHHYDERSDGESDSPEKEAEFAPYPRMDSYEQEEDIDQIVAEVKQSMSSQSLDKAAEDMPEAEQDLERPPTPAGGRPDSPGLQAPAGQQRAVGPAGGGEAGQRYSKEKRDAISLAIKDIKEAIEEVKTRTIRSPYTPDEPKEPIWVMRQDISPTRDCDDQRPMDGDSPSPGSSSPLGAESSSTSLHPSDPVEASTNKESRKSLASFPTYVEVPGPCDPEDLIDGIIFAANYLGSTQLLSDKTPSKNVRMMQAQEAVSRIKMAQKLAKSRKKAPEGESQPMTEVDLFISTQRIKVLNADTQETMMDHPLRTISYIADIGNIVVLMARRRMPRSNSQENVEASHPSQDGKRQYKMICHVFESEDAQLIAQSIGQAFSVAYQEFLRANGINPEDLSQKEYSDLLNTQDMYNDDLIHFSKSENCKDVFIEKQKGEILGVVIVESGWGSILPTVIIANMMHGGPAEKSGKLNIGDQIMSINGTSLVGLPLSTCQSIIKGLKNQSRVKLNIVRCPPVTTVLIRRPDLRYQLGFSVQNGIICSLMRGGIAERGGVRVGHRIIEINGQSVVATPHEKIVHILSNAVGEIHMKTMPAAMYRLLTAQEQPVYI

Structure (SMILES): Cc1cc(C)c2c(=O)n(CC(=O)NCCCN3CCN(c4ccccc4F)CC3)sc2n1
- IC50 [1]: 12.4 µM (active)
- IC50 [2]: 14.3 µM (active)
- IC50 [3]: 48.8 µM (active)
- EC50 [4]: 18 µM (active)
- EC50 [5]: 17 µM (active)
- EC50 [6]: 0.0013 µM (active)

Structure (SMILES): Cc1cc(NC(=O)CCS(=O)(=O)c2nc(-c3ccccc3)cc(C(F)(F)F)n2)no1
- EC50 [7]: > 20 µM (inactive)
- IC50 [8]: 6.11 µM (active)
- IC50 [9]: > 20 µM (inactive)
- EC50 [10]: 9.01 µM (active)
- EC50 [11]: > 20 µM (inactive)
- IC50 [12]: 8.24 µM (inactive)
- IC50 [13]: > 20 µM (inactive)
- EC50 [14]: > 20 µM (not active)

Structure (SMILES): Cc1ccc(C2=NN(C(=O)CCl)C(c3cccs3)C2)o1 (configuration not stated)
- EC50 [7]: 8.03 µM (active)
- IC50 [8]: 2.11 µM (active)
- IC50 [9]: > 20 µM (inactive)
- EC50 [11]: 8.81 µM (active)
- IC50 [12]: 4.05 µM (active)
- IC50 [13]: > 20 µM (inactive)
- EC50 [15]: 35.7 µM (inconclusive)
- AC50 [16]: 6.1 µM (active)
- AC50 [17]: 1.52 µM (active)
- EC50 [18]: 1.51 µM (active)

Structure (SMILES): O=c1c2cc(Br)ccc2sn1-c1ccccc1
- IC50 [19]: > 25 µM (inactive)

Structure (SMILES): O=C(CSc1nnc(-c2ccncc2)n1-c1ccc(Cl)cc1)c1ccc(O)c(O)c1
- IC50 [20]: 6.63 µM (active)
- IC50 [21]: 38.7 µM (active)
